Measurements reported in US20150105252A1, “SUBSTITUTED PYRAZOLES AS HERBICIDES” (E I DU PONT DE NEMOURS AND COMPANY, priority 2013, published 2015).

What was measured:
[1] = tested on: lambsquarters; assay: Test C postemergence; assay type: in vivo, Chenopodium album
How it was run: (§1)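 Scores of 0 (no effect) to 100 (complete control) were assigned by eye after 13–15 days, comparing treated pots with controls. Soil-applied (preemergence) treatments went onto seeds in loam and sand; foliar (postemergence) treatments onto 1- to 4-leaf plants in peat medium.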

[2] = tested on: oat, wild; assay: Test C postemergence; assay type: in vivo, Avena fatua
How it was run: as §1

[3] = tested on: nutsedge, yellow; assay: Test C postemergence; assay type: in vivo, Cyperus esculentus
How it was run: as §1

[4] = tested on: barnyardgrass; assay: Test B flood; assay type: in vivo, Echinochloa crus-galli; settings: 250 g ai/ha, visual rating on 0 to 100 scale (0 no effect, 100 complete control), 13 to 15 days
How it was run: (§2)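 2-leaf plants; pots flooded 3 cm over soil; compound added to paddy water, depth kept constant. Greenhouse 13–15 d. Visual rating vs controls, 0–100 scale (100 = complete control); dash = no result.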

[5] = tested on: johnsongrass; assay: Test C postemergence; assay type: in vivo, Sorghum halepense
How it was run: as §1

[6] = tested on: foxtail, giant; assay: Test A preemergence; assay type: in vivo, Setaria faberii; settings: preemergence
How it was run: (§3)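 Greenhouse test in loam soil/sand blend; compounds formulated in non-phytotoxic solvent with surfactant, applied as preemergence directed soil spray or postemergence to plants 2–10 cm tall at one- to two-leaf stage. Injury rated visually versus untreated controls after approximately 10 days on a 0 (no effect) to 100 (complete control) scale.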

[7] = tested on: barnyardgrass; assay: Test A postemergence; assay type: in vivo, Echinochloa crus-galli
How it was run: as §3

[8] = tested on: pigweed; assay: Test C postemergence; assay type: in vivo, Amaranthus retroflexus
How it was run: as §1

[9] = tested on: kochia; assay: Test C postemergence; assay type: in vivo, Kochia scoparia
How it was run: as §1

[10] = tested on: velvetleaf; assay: Test C postemergence; assay type: in vivo, Abutilon theophrasti
How it was run: as §1

[11] = tested on: ducksalad; assay: Test B flood; assay type: in vivo, Heteranthera limosa; settings: 250 g ai/ha, visual rating on 0 to 100 scale (0 no effect, 100 complete control), 13 to 15 days
How it was run: as §2

[12] = tested on: waterhemp; assay: Test C preemergence; assay type: in vivo, Amaranthus rudis
How it was run: as §1

[13] = tested on: oilseed rape; assay: Test C postemergence; assay type: in vivo, Brassica napus
How it was run: as §1

[14] = tested on: rice; assay: Test B flood; assay type: in vivo, Oryza sativa; settings: 250 g ai/ha, visual rating on 0 to 100 scale (0 no effect, 100 complete control), 13 to 15 days
How it was run: as §2

[15] = Postemergence, 31 g ai/ha, visually evaluated after 13 to 15 days
[16] = postemergence, 62 g ai/ha, scale 0 to 100
[17] = postemergence, 250 g ai/ha, scale 0 to 100 (0 no effect, 100 complete control)
[18] = postemergence, 125 g ai/ha, scale 0 to 100, 0 no effect, 100 complete control

CCCc1cc(C(=O)NCC)nn1Cc1ccnc(C(F)(F)F)c1 [Compound 95]
Plant response rating (scale of 0 to 100 where 0 is no effect and 100 is complete control), Lambsquarters [1, 15]: 40 | Lambsquarters plant response rating [1, 16]: 80 | Plant response rating, Lambsquarters [1, 17]: 98 | Plant response rating, Lambsquarters [1, 18]: 90 | Plant response rating (scale of 0 to 100 where 0 is no effect and 100 is complete control), Oat, Wild [2, 15]: 5 | Oat, Wild plant response rating [2, 16]: 5 | Plant response rating, Oat, Wild [2, 17]: 50 | Plant response rating, Oat, Wild [2, 18]: 15 | Plant response rating (scale of 0 to 100 where 0 is no effect and 100 is complete control), Nutsedge, Yellow [3, 15]: 0 | Nutsedge, Yellow plant response rating [3, 16]: 0 | Plant response rating, Nutsedge, Yellow [3, 17]: 10 | Plant response rating, Nutsedge, Yellow [3, 18]: 5 | Plant response rating, Barnyardgrass [4]: 40 | Plant response rating (scale of 0 to 100 where 0 is no effect and 100 is complete control), Johnsongrass [5, 15]: 0 | Johnsongrass plant response rating [5, 16]: 0 | Plant response rating, Johnsongrass [5, 17]: 30 | Plant response rating, Johnsongrass [5, 18]: 5 | Foxtail, Giant plant response rating ([6]; 125 g ai/ha, visual injury, 0 to 100 scale, approx. 10 days): 100 | Foxtail, Giant plant response rating ([6]; 500 g ai/ha, visual injury after approx. 10 days, 0 to 100 scale (0 no effect, 100 complete control)): 100 | Barnyardgrass plant response rating ([7]; Postemergence, 500 g ai/ha, visual rating after approx. 10 days, 0 to 100 scale (0 no effect, 100 complete control)): 100 | Barnyardgrass plant response rating ([7]; postemergence, 125 g ai/ha, about 10 days, visual rating on 0 to 100 scale (0 no effect, 100 complete control)): 90 | Plant response rating (scale of 0 to 100 where 0 is no effect and 100 is complete control), Pigweed [8, 15]: 10 | Pigweed plant response rating [8, 16]: 40 | Plant response rating, Pigweed [8, 17]: 70 | Plant response rating, Pigweed [8, 18]: 40 | Plant response rating (scale of 0 to 100 where 0 is no effect and 100 is complete control), Kochia [9, 15]: 50 | Kochia plant response rating [9, 16]: 70 | Plant response rating, Kochia [9, 17]: 85 | Plant response rating, Kochia [9, 18]: 85 | Plant response rating (scale of 0 to 100 where 0 is no effect and 100 is complete control), Velvetleaf [10, 15]: 10 | Velvetleaf plant response rating [10, 16]: 15 | Plant response rating, Velvetleaf [10, 17]: 40 | Plant response rating, Velvetleaf [10, 18]: 35 | Plant response rating, Ducksalad [11]: 85 | Plant response rating (scale of 0 to 100), Waterhemp ([12]; Preemergence, 250 g ai/ha): 100 | Waterhemp plant response rating ([12]; preemergence, 31 g ai/ha, visual rating, scale 0 to 100 (0 no effect, 100 complete control), 13 to 15 days): 100 | Plant response rating, Waterhemp ([12]; preemergence, 62 g ai/ha, 13 to 15 days, scale 0 to 100, 0 = no effect, 100 = complete control): 100 | Waterhemp plant response rating ([12]; preemergence, 125 g ai/ha, scale 0 to 100, 0 is no effect, 100 is complete control): 100 | Plant response rating (scale of 0 to 100 where 0 is no effect and 100 is complete control), Oilseed Rape [13, 15]: 30 | Oilseed Rape plant response rating [13, 16]: 30 | Plant response rating, Oilseed Rape [13, 17]: 50 | Plant response rating, Oilseed Rape [13, 18]: 50 | Plant response rating, Rice [14]: 20
